Assay results taken from US11053196B2, “Substituted indoline derivatives as dengue viral replication inhibitors” (JANSSEN PHARMACEUTICALS, INC., priority 2017, dated 2021).

Experiments:
DENV-3 strain H87 = experiment: Tetravalent RT-qPCR assay, serotype 3; assay type: cell-based; conditions: Dengue virus, DENV3, 72 h; RT-qPCR serotype 3 H87, Vero cells, day 3
Experimental: (§1) The antiviral activity of the compounds of the invention was tested against DENV-1 strain TC974#666 (NCPV), DENV-2 strain 16681, DENV-3 strain H87 (NCPV) and DENV-4 strain H241 (NCPV) in a RT-qPCR assay. Therefore, Vero cells were infected with either DENV-1, or -2, or -3, or -4 in the presence or absence of test compounds. At day 3 post-infection, the cells were lysed and cell lysates were used to prepare cDNA of both a viral target (the 3′UTR of DENV; Table 2) and a cellular reference gene (1-actin, Table 2). Subsequently, a duplex real time PCR was performed on a Lightcycler480 instrument. The generated Cp value is inversely proportional to the amount of RNA expression of these targets. Inhibition of DENV replication by a test compound results in a shift of Cp's for the 3′UTR gene. On the other hand, if a test compound is toxic to the cells, a similar effect on 1-actin expression will be observed. The comparative ΔΔCp method is used to calculate EC50, which is based on the relative gene expression of the target gene (3′UTR) normalized with the cellular housekeeping gene (1-actin). In addition, CC50 values are determined based on the C, values acquired for the housekeeping gene β-actin.
(§2) The culture medium consisted of minimal essential medium supplemented with 2% of heat-inactivated fetal calf serum, 0.04% gentamycin (50 mg/mL) and 2 mM of L-glutamine. Vero cells, obtained from ECACC, were suspended in culture medium and 75 μL/well was added in 96-well plates (10000 cells/well), which already contain the antiviral compounds. […] In addition, each plate contains wells which are assigned as virus controls (containing cells and virus in the absence of compound) and cell controls (containing cells in the absence of virus and compound). Once the cells were added in the plates, the plates were incubated in a fully humidified incubator (37° C., 5% CO2) until the next day. Dengue viruses serotype-1, 2, 3 and 4 were diluted in order to obtain a Cp of ˜22-24 in the assay. Therefore, 25 μL of virus suspension was added to all the wells containing test compound and to the wells assigned as virus control. In parallel, 25 μL of culture medium was added to the cell controls. Next, the plates were incubated for 3 days in a fully humidified incubator (37° C., 5% CO2). After 3 days, the supernatant was removed from the wells and the cells were washed twice with ice-cold PBS (−100 μL). The cell pellets within the 96-well plates were stored at −80° C. for at least 1 day. Next, RNA was extracted using the Cells-to-CT™ lysis kit, according to the manufacturer's guideline (Life Technologies). The cell lysates can be stored at −80° C. or immediately used in the reverse transcription step.
(§3) In preparation of the reverse transcription step, mix A (table 3A) was prepared and 7.57 μL/well was dispensed in a 96-well plate. After addition of 5 μL of the cell lysates, a five minute denaturation step at 75° C. was performed (table 3B). Afterwards, 7.43 μL of mix B was added (table 3C) and the reverse transcription step was initiated (table 3D) to generate cDNA.
(§4) Finally, a RT-qPCR mix was prepared, mix C (table 4A), and 22.02 μL/well was dispensed in 96-well LightCycler qPCR plates to which 3 μL of cDNA was added and the qPCR was performed according to the conditions in table 4B on a LightCycler 480.
(§5) Using the LightCycler software and an in-house LIMS system, dose response curves for each compound were calculated and the half maximal effective concentration (EC50) and the half maximal cytotoxic concentration (CC50) were determined (Tables 5-8).

DENV-4 strain H241 = experiment: Tetravalent RT-qPCR assay, serotype 4; assay type: cell-based; conditions: Dengue virus, DENV4, 72 h; RT-qPCR serotype 4 H241, Vero cells, day 3
Experimental: as §1, §2, §3, §4, §5

DENV-2 strain 16681 = experiment: Tetravalent RT-qPCR assay, serotype 2; assay type: cell-based; conditions: Dengue virus, DENV2, 72 h; RT-qPCR serotype 2 16681, Vero cells, day 3
Experimental: as §1, §2, §3, §4, §5

DENV-1 strain TC974#666 = experiment: Tetravalent RT-qPCR assay, serotype 1; assay type: cell-based; conditions: Dengue virus, DENV1, 72 h; RT-qPCR serotype 1 TC974#666, Vero cells, day 3
Experimental: as §1, §2, §3, §4, §5

DENV-2 16681 strain = experiment: DENV-2 antiviral assay (eGFP-labeled virus in Vero cells); assay type: cell-based, Dengue virus; conditions: DENV-2 16681 eGFP, MOI 0.5, 3 days
Experimental: The antiviral activity of all the compounds of the invention was tested against the DENV-2 16681 strain which was labeled with enhanced green fluorescent protein (eGPF). The culture medium consists of minimal essential medium supplemented with 2% of heat-inactivated fetal calf serum, 0.04% gentamycin (50 mg/mL) and 2 mM of L-glutamine. Vero cells, obtained from ECACC, were suspended in culture medium and 25 μL was added to 384-well plates (2500 cells/well), which already contain the antiviral compounds. Typically, these plates contain a 5-fold serial dilution of 9 dilution steps of the test compound at 200 times the final concentration in 100% DMSO (200 nL). […] Finally, each plate contains wells which are assigned as virus controls (containing cells and virus in the absence of compound), cell controls (containing cells in the absence of virus and compound) and medium controls (containing medium in the absence of cells, virus and compounds). To the wells assigned as medium control, 25 μL of culture medium was added instead of Vero cells. Once the cells are added to the plates, the plates were incubated for 30 minutes at room temperature to allow the cells to distribute evenly within the wells. Next, the plates were incubated in a fully humidified incubator (37° C., 5% CO2) until the next day. Then, DENV-2 strain 16681, labeled with eGFP, was added at a multiplicity of infection (MOI) of 0.5.
Therefore, 15 μL of virus suspension was added to all the wells containing test compound and to the wells assigned as virus control. In parallel, 15 μL of culture medium was added to the medium and cell controls. Next, the plates were incubated for 3 days in a fully humidified incubator (37° C., 5% CO2). At the day of the read out, the eGFP fluorescence was measured using an automated fluorescence microscope at 488 nm (blue laser). Using an in-house LIMS system, inhibition dose response curves for each compound were calculated and the half maximal effective concentration (EC50) was determined. Therefore, the percent inhibition (I) for every test concentration is calculated using the following formula: I=100*(ST−SCC)/(SVC−SCC); ST, SCC and SVC are the amount of eGFP signal in the test compound, cell control and virus control wells, respectively. The EC50 represents the concentration of a compound at which the virus replication is inhibited with 50%, as measured by a 50% reduction of the eGFP fluorescent intensity compared to the virus control. The EC50 is calculated using linear interpolation (Table 1).

in vitro = assay type: cell-based; conditions: African green monkey
Experimental: as §1, with “The comparative ΔΔCp method is used to calculate EC50, which is based on the relative gene expression of the target gene (3′UTR) normalized with the cellular housekeeping gene (1-actin).” left out, “β-actin. […]” for “β-actin.”
as §5

Vero cells = conditions: African green monkey

## COc1cc(NC(C(=O)N2CCc3ccc(OC(F)(F)F)cc32)c2ccc(F)cc2OC)cc(OCCCC(=O)O)c1 (single isomer, unassigned) [Compound 6B, 4-(3-((1-(4-fluoro-2-methoxyphenyl)-2-oxo-2-(6-(trifluoromethoxy)indolin-1-yl)ethyl)amino)-5-methoxyphenoxy)butanoic acid]
DENV-3 strain H87
  EC50: 5.6 nM
DENV-4 strain H241
  EC50: 29 nM
DENV-2 strain 16681
  EC50: 0.41 nM
DENV-1 strain TC974#666
  EC50: 0.64 nM
DENV-2 16681 strain
  EC50: 0.39 nM
In vitro
  CC50 at 3 days: 13000 nM
Vero cells
  CC50: 15000 nM
